Laboratory results as given in patent US20100138935A1, “Detection of cellular stress” (priority 2004, published 2010).
Where two headings read alike, the source gives them in different places.

Tests used:
[1] = tested on: HO-1-LacZ (HOZ) transgene; test: LacZ transgene expression in HO-1-LacZ (HOZ) reporter mice; assay type: in vivo, mouse; conditions: female HOZ mice, 13 mg/kg i.p. in isotonic saline, 8 hours or 24 hours
Description: (§1) Each test compound was dissolved in the appropriate vehicle solution and administered by intraperitoneal injection (i.p.) at a dose volume of 10 ml/kg. Wherever possible, both naive (untreated) and vehicle-treated controls were used. If a test item whose toxicity in the mouse is poorly characterised was to be used, a dose-ranging experiment was conducted prior to the main experiment. The test item was administered to a single mouse which was monitored for any adverse effects 6-8 hours and 24 hours later. If the single dose ranging mouse tolerated the treatment, the remaining mice were administered the test item according to the protocol.
(§2) Two slices of tissue (˜2 mm thickness) were removed for histochemical analysis of LacZ expression according to methods described below.
(§3) Tissues were washed with PBS and prefixed in 0.2% glutaraldehyde in PBS containing 0.1M MgCl2 and 5 mM EDTA, pH 7.3, for 4 hours at 4° C. on a shaker. After fixation, the tissues were transferred to 20% Sucrose solution and dehydrated overnight at 4° C. The next day they were embedded in cryo-M-bed medium on cork discs and lowered slowly into liquid nitrogen then transferred to −80° C. until sections were required.
(§4) Cryostat sample and chamber temperatures were set to −30° C. The sample to be sectioned was placed in the cryostat one hour prior to sectioning to allow equilibration at the appropriate temperature. Frozen sections (10 μm) were cut and placed on aminopropyltriethoxysilane (APES) coated slides.
(§5) Prior to staining, sections were incubated in 0.2% glutaraldehyde (as above) for 10 minutes at room temperature then washed twice (5 min each) in PBS containing 2 mM MgCl2, 0.01% sodium deoxycholate and 0.02% % Nonidet-P40. Sections were then […] the same wash solution containing 1 mg/ml X-gal, 5 mM potassium ferrocyanide and 5 mM potassium ferricyanide overnight at 37° C. then washed twice in PBS for 5 min, allowed to air dry and mounted in aqueous mounting medium (Hydromount). Slides were evaluated and photographed. • Frozen Method 2
Tissues were excised, immediately placed into chilled 4% paraformaldehyde containing 0.1% glutaraldehyde and 2 mM MgCl2 in PBS, and fixed in the above solution for 3 hours at 2-8° C. with gentle shaking. Fixed tissues were washed at 2-8° C. for 3×5 minutes with chilled PBS containing 2 mM MgCl2 and dehydrated overnight at 2-8° C. in PBS containing 2 mM MgCl2 and 30% (w/v) sucrose overnight The next day dehydrated tissues were embedded in OCT embedding medium using an isopentane/dry ice bath. Embedded tissues were stored at −70° C. until they could be cryosectioned.
Frozen sections were washed three times for 5 minutes in PBS containing 2 mM MgCl2 at 2-8° C. then 3×30 min in detergent wash (PBS containing 2 mM MgCl2 0.01% Nonidet P40 and 0.1% Sodium Deoxycholate) at 2-8° C. They were then stained overnight in PBS containing 2 mM MgCl2, 0.02% Nonidet P40, 0.1% Sodium Deoxycholate, 5 mM Potassium ferrocyanide, 5 mM Potassium ferricyanide, and 0.1% X-gal at 37° C. The next day, the slides were washed three times for 5 minutes in PBS containing 2 mM MgCl2 followed by three times for 5 minutes in PBS at room temperature. They were equilibrated with 100% ethanol (5 min) and counterstained with Eosin for 1 min at room temperature. Following dehydration and mounting they were evaluated and photographed. • Whole Mount Method
Tissue specimens that had been prefixed in fresh 4% paraformaldehyde were stained immediately using the procedure for “Whole Mount X-Gal Histochemistry of Transgenic Animal Tissues” (see http://www.rodentia.com/wmc/docs/lacZ bible.html), summarised below) was followed, and the post-fixed tissues were transferred to 70% (v/v) ethanol.
Following fixation for one hour in 4% paraformaldehyde, tissues were rinsed three times, for thirty minutes each, with rinse buffer (100 mM sodium phosphate (pH 7.3), 2 mM MgCl2, 0.01% sodium deoxycholate, 0.02% NP-40) at room temperature. […]

HOZ mice [2] = test: Plasma AST as a marker of hepatotoxicity in HOZ mice; assay type: in vivo, mouse; conditions: female, 13 mg/kg
Description: (§6) Terminal blood samples were taken by cardiac puncture into lithium/heparin-coated tubes for preparation of plasma. Tissues, as defined in each protocol, were routinely dissected as follows:
(§7) Following removal into tubes suitable for plasma preparation, venous blood samples were mixed on a roller for 10 minutes then cooled on ice. Red blood cells were removed by centrifugation at 2,000 rpm for 10 minutes at 8-10° C. The supernatant (plasma) was transferred to a second tube and stored at −70° C. until required for analysis.
(§8) Plasma samples were analysed for appropriate analytes on a Roche autoanalyser (Cobas Integra 400) according to the manufacturer's instructions. The routine markers measured included: (for liver damage) plasma alanine aminotransferase (ALT), aspartate aminotransferase (AST) and alkaline phosphatase (ALP) and (for kidney damage) plasma creatinine and blood urea nitrogen (BUN).
Two plasma enzyme markers, ALT and AST, were used as markers of hepatotoxicity in HOZ mice treated with cadmium chloride or sodium arsenite. […]

HOZ mice [3] = test: BUN as a marker of nephrotoxicity in HOZ mice; assay type: in vivo, mouse; conditions: female, 13 mg/kg
Description: as §6, §7, §8
The increase in BUN was 6-fold at 8 hours and 44-fold after 24 hours.

HOZ mice [4] = test: Plasma ALT as a marker of hepatotoxicity in HOZ mice; assay type: in vivo, mouse; conditions: 13 mg/kg; for Plasma ALT: female
Description: as §6, §7, §8
Two plasma enzyme markers, ALT and AST, were used as markers of hepatotoxicity in HOZ mice treated with cadmium chloride or sodium arsenite. The results of this analysis for HOZ mice treated with 10 mg/kg cadmium chloride are shown in Table 1 and for HOZ mice treated with 2-8 mg/kg cadmium chloride or 13 mg/kg sodium arsenite in Tables 2 and 3.

p21-LacZ (WAZ) transgene = assay type: in vivo, mouse
Description: as §1, §2
Mouse brains were dissected so as to reveal the dentate gyrus as fully as possible. In the case of the kidneys, one kidney was cut in longitudinal section and the other in transverse section.
as §3, §4, §5
In experiments on WAZ44 mice, single doses of etoposide (of up to 40 mg/kg) were administered i.p. Animals were killed after 24 hours and tissues fixed and stained for LacZ expression.
Acrylamide, at a total dose of 150 mg/kg, induces neuropathy manifesting as partial paralysis approximately 7 days after the start of treatment. The dose may be administered as a single injection or divided; however, the effect depends upon the total dose, and since a single dose of 150 mg/kg is likely to be acutely toxic, a five-day coursed of injections of 30 mg/kg is preferred. Acrylamide intoxication is associated with both central and peripheral effects; the central effects include behavioural changes (increased milk-licking) which occur within two days of dosing, preceding peripheral changes such as reduced hind-limb grip and reduced locomotor activity by up to three weeks (Teal and Evans, 1982). In experiments on WAZ44 mice, five doses of acrylamide (30 mg/kg) were administered i.p.
A frozen section from the brain of an acrylamide-treated WAZ44 mouse was prepared and stained using Frozen Method 1. A dissecting microscope was used to view the slides and generate photomicrographs (a) transverse section of whole brain, original magnification ×10; (b) dentate gyrus and hippocampus, original magnification ×25 (c) cortex, original magnification ×63.
WAZ mice received single i.p. injections of etoposide (40 mg/kg); mercuric chloride (HgCl2, 8.5 mg/kg); lipopolysaccharide (LPS, 1.5 mg/kg) or paracetamol (300 mg/kg). WAZ mice received a single i.p. injection of each compound at a single dose level (see FIG. 5). Twenty-four hours later, the mice were killed and the brains sectioned and stained for LacZ expression.

[5] = dissolved in DMSO, injected intra-peritoneally; cited from earlier work
[6] = tested on: HO-1-LacZ reporter transgene in HEK293 cells; test: Transient transfection of HO-1-LacZ reporter construct into HEK293 cells, induction with haemin; assay type: cell-based, mouse
Description: We have used RedET recombination cloning (Zhang et al., 2000) to produce a HO-1-LacZ reporter transgene. A LacZ-SV40polyA minigene was engineered to contain homologous regions to exons 1 and 2 of the HO-1 gene. This minigene cassette also contains a bacterial Amp gene, at the 3′-end, which was used as a selectable marker during cloning. The minigene was then introduced, by homologous recombination, into a BAC clone containing the mouse HO-1 locus (clone RPCI-23 290L07, HGMP Resource Centre) substituting for the endogenous HO-1 exon1 and intron1 sequences. Thus, the HO-1 promoter would express LacZ from the ATG start codon, in place of the HO-1 protein. The correct position of the LacZ-SV40polyA minigene was confirmed by sequencing both the 5′- and 3′-junction regions. The HO-1 reporter locus, containing most of the HO-1 gene together with 16.5 kb of upstream promoter and 8 kb of 3′ sequence, was then recombined out from the BAC clone into the pACYC low copy number plasmid backbone.

[7] = WAZ mice, single i.p. injection (etoposide 40 mg/kg; HgCl2 8.5 mg/kg; LPS 1.5 mg/kg; paracetamol 300 mg/kg), 24 hours

In the case of `O=[As]O` [Sodium Arsenite, sodium arsenite], the “HOZ transgene expression in liver” value [1] is reported as “expression of the HOZ transgene at both time points”, the “Plasma AST” value (HOZ mice [2]; 8 hours) is reported as 107.3 u/L and the “Plasma AST” value (HOZ mice [2]; 24 hours) is reported as 67.8 u/L. For the same compound, the BUN (HOZ mice [3]; 8 hours) was 5.62, the BUN (HOZ mice [3]; 24 hours) was 3.50 and the “hepatotoxic response (plasma ALT, AST)” value (HOZ mice [4]; HOZ mice) was “did not exhibit a hepatotoxic response”. For the same compound, the “Plasma ALT” value (HOZ mice [4]; 8 hours) was 43.0 u/L and the “Plasma ALT” value (HOZ mice [4]; 24 hours) was 26.7 u/L.
With `COc1cc([C@@H]2c3cc4c(cc3[C@@H](O[C@@H]3O[C@@H]5CO[C@@H](C)O[C@H]5[C@H](O)[C@H]3O)[C@H]3COC(=O)[C@H]23)OCO4)cc(OC)c1O` [etoposide] the “LacZ transgene expression in tissues” value (p21-LacZ (WAZ) transgene; WAZ44 mice, single doses of up to 40 mg/kg i.p., killed after 24 hours) was “significant expression in the spleen, the thymus and in some regions of the brain”, the “expression of the WAZ transgene in the brain” value (from here on “expression … in the brain”) (p21-LacZ (WAZ) transgene; mouse, in vivo) was “high levels of expression” and the “pattern of WAZ transgene induction in the brain” value (“pattern” below) (p21-LacZ (WAZ) transgene; mouse, in vivo) was “induced expression in the same cells within the various regions in the brain”. For the same compound, the LD50 [5] was 40 mg/kg.
In the case of `C=CC1=C(C)c2cc3[n-]c(cc4nc(cc5[n-]c(cc1n2)c(C)c5C=C)C(C)=C4CCC(=O)O)c(CCC(=O)O)c3C.[Cl-].[Fe+3]` [haemin], the “increase in the LacZ labelling index over uninduced control cells” value [6] is reported as 11 fold.
With `[Cl][Hg][Cl]` [mercuric chloride] the “expression … in the brain” value (p21-LacZ (WAZ) transgene; [7]) was “high levels of expression” and the “pattern” value (p21-LacZ (WAZ) transgene; [7]) was “induced expression in the same cells within the various regions in the brain”.
For `CC(=O)Nc1ccc(O)cc1` [paracetamol], the “expression … in the brain” value (p21-LacZ (WAZ) transgene; mouse, in vivo) was “high levels of expression” and the “pattern” value (p21-LacZ (WAZ) transgene; mouse, in vivo) was “distinct pattern of induction within the hippocampus, cerebellum and cortex”.
In the case of lipopolysaccharide [LPS], the “expression … in the brain” value (p21-LacZ (WAZ) transgene; [7]) is reported as “high levels of expression” and the “pattern” value (p21-LacZ (WAZ) transgene; [7]) is reported as “induced expression in the same cells within the various regions in the brain”.
